From patent publication US9073941B2, “Compounds and methods for treating tuberculosis infection” (Academia Sinica, priority 2010, dated 2015) come the findings set out here.

The structures appear in SMILES notation.

The first assay concerns the target lipoamide dehydrogenase (Lpd) (Mycobacterium tuberculosis (strain ATCC 25618 / H37Rv), UniProt P9WHH9). The experiment in a line: Lipoamide Dehydrogenase (Lpd) Inhibition Assay.
Conditions: not given
Format: biochemical.
For `CC(C)n1cnc(S(=O)(=O)N2CCC(C(=O)NCc3cccs3)CC2)c1` [Compound 549], the IC50 stood at 3420 ± 1330 nM. Same read-out and setting: with `CCOc1ccc(NC(=O)C2CCN(S(=O)(=O)c3cn(CC)cn3)CC2)cc1` [Compound 543] the figure was 3970 ± 1130 nM; with `CN(CC(=O)Nc1ccc(F)cc1)S(=O)(=O)c1cc(Br)cnc1N` [Compound 504], 4300 ± 1210 nM; with `CC(C)n1cnc(S(=O)(=O)N2CCC(C(=O)NCc3ccc(F)cc3)CC2)c1` [Compound 557], 3550 ± 1170 nM. Same read-out and setting: with `COc1cc(OC)c(NC(=O)C2CCN(S(=O)(=O)c3cn(C(C)C)cn3)CC2)cc1Cl` [Compound 546] the figure was 2850 ± 780 nM; with `CCOc1ccc(NC(=O)C2CCN(S(=O)(=O)c3cn(C(C)C)cn3)CC2)cc1` [Compound 520], 2170 ± 370 nM.

The molecule `Cc1cccc(CNC(=O)C2CCN(S(=O)(=O)c3cn(C(C)C)cn3)CC2)c1` [Compound 540] returned a concentration for half-maximal inhibition (IC50) of 4180 ± 1090 nM.

Turning to `CN(C(=O)c1ccc2c(c1)OCCO2)c1nc2c(s1)CCc1c-2cnn1C` [Compound 1106], the IC50 worked out at 2670 ± 230 nM. On to `Cc1ccc(NC(=O)C2CCN(S(=O)(=O)c3cn(C(C)C)cn3)CC2)cc1F` [Compound 532], for which the midpoint of inhibition, the IC50, lay at 2850 ± 510 nM.

`CCc1ccc(NC(=O)C2CCN(S(=O)(=O)c3cn(CC)cn3)CC2)cc1` [Compound 539] showed an IC50 of 4300 ± 1660 nM. As to `CC(C)n1cnc(S(=O)(=O)N2CCC(C(=O)Nc3ccc4c(c3)OCO4)CC2)c1` [Compound 530], the IC50 was found to be 2070 ± 710 nM. Molecule `CC(C)n1cnc(S(=O)(=O)N2CCC(C(=O)NCc3ccccc3)CC2)c1` [Compound 536] returned an IC50 of 2690 ± 800 nM. In turn, `CC(C)c1ccc(NC(=O)C2CCN(S(=O)(=O)c3cn(C(C)C)cn3)CC2)cc1` [Compound 509] showed an IC50 of 2870 ± 520 nM. `COc1ccc(NC(=O)CN(C)S(=O)(=O)c2cc(Br)cnc2N)cc1Cl` [Compound 503] came in with an IC50 of 700 ± 80 nM. `COc1cc(Cl)c(NC(=O)C2CCN(S(=O)(=O)c3cn(C(C)C)cn3)CC2)c(OC)c1` [Compound 552] yielded an IC50 of 2870 ± 670 nM.

The assay is the same for the next values; noted with them: concentration required for 50% inhibition of LPD activity; DTNB detection, OD405 nm.
Turning to `COc1ccc(CNC(=O)C2CCN(S(=O)(=O)c3cn(C(C)C)cn3)CC2)cc1` [Compound 558], 3330 ± 800 nM corresponded to half-maximal inhibition (IC50). Turning to `CC(C)c1ccc(NC(=O)CN(C)S(=O)(=O)c2cc(Br)cnc2N)cc1` [Compound 505], the IC50 stood at 840 ± 110 nM. `CCOc1ccc2nc(O)c(CNc3ccc4[nH]ncc4c3)cc2c1` [Compound 807]: the IC50 was determined as 4540 ± 770 nM. In the case of `COc1ccc(NC(=O)C2CCN(S(=O)(=O)c3cn(C(C)C)cn3)CC2)cc1` [Compound 521], half-maximal inhibition (IC50) was put at 2310 ± 360 nM.

The molecule `CCOC(=O)c1ccc(NC(=O)C2CCN(S(=O)(=O)c3cn(C(C)C)cn3)CC2)cc1` [Compound 525] came in with an IC50 of 2440 ± 580 nM.

Molecule `CC(C)n1cnc(S(=O)(=O)N2CCC(C(=O)Nc3ccc4c(c3)OCCO4)CC2)c1` [Compound 523] registered an IC50 of 1600 ± 480 nM. `CC(C)n1cnc(S(=O)(=O)N2CCC(C(=O)Nc3cccc(Br)c3)CC2)c1` [Compound 519] displayed an IC50 of 2760 ± 590 nM. `CCn1cnc(S(=O)(=O)N2CCC(C(=O)Nc3ccc(OC)c(Cl)c3)CC2)c1` [Compound 548] showed an IC50 of 2350 ± 520 nM. Take `CCn1cnc(S(=O)(=O)N2CCC(C(=O)Nc3ccc(OC)cc3)CC2)c1` [Compound 541]: the IC50 worked out at 3310 ± 1220 nM.

For the molecule `CC(C)n1cnc(S(=O)(=O)N2CCC(C(=O)Nc3ccc(S(N)(=O)=O)cc3)CC2)c1` [Compound 513], the IC50 was determined as 4120 ± 1810 nM. On the same count and under the same terms, with `Oc1ccc(NCc2cc3cc4c(cc3nc2O)OCO4)cc1` [Compound 804] the figure was 4670 ± 570 nM.

The molecule `CCCN(C(=O)c1ccc(COC)o1)c1nc2c(s1)CCc1c-2cnn1C` [Compound 1102] registered an IC50 of 3160 ± 430 nM. The same measure, in the same setting: the same measure for `CCn1cnc(S(=O)(=O)N2CCC(C(=O)Nc3ccc4c(c3)OCCO4)CC2)c1` [Compound 545]: 2690 ± 560 nM. Turning to `CCN(C(=O)C1CCCO1)c1nc2c(s1)CCc1c-2cnn1C` (stereo not drawn) [Compound 1108], the IC50 stood at 3760 ± 190 nM. In turn, `CCOc1ccc(CNC(=O)C2CCN(S(=O)(=O)c3cn(C(C)C)cn3)CC2)cc1OC` [Compound 561] had a 50% inhibitory concentration (IC50) of 3020 ± 1780 nM. The same measure, in the same setting: with `Cc1cccc(NC(=O)C2CCN(S(=O)(=O)c3cn(C(C)C)cn3)CC2)c1` [Compound 508] the figure was 2610 ± 820 nM; with `CCSc1nnc(NC(=O)C2CCN(S(=O)(=O)c3cn(CC)cn3)CC2)s1` [Compound 565], 3060 ± 470 nM.

Take `Cn1c(=O)nc2[nH]nc(/C=C/c3ccccc3)nc-2c1=O` [Compound 622]: the IC50 was 2160 ± 260 nM.

As to `CC(C)n1cnc(S(=O)(=O)N2CCC(C(=O)Nc3ccc(Br)cc3F)CC2)c1` [Compound 538], the IC50 is 2540 ± 570 nM. As to `CN(C(=O)c1ccc(Cn2cccn2)o1)c1nc2c(s1)CCc1c-2cnn1C` [Compound 1105], the IC50 came to 3640 ± 510 nM. For the molecule `COc1ccc(NC(=O)C2CCN(S(=O)(=O)c3cn(C(C)C)cn3)CC2)cc1Cl` [Compound 534], the midpoint of inhibition, the IC50, lay at 1690 ± 380 nM.

`CCc1ccc(NC(=O)C2CCN(S(=O)(=O)c3cn(C(C)C)cn3)CC2)cc1` [Compound 512] returned an IC50 of 2900 ± 710 nM.

`CSc1cccc(NC(=O)C2CCN(S(=O)(=O)c3cn(C(C)C)cn3)CC2)c1` [Compound 515] yielded an IC50 of 4810 ± 840 nM.

As for `COC1CCCC(C(=O)N(CC2CCCO2)c2nc3c(s2)CCc2c-3cnn2C)C1` (stereo not drawn) [Compound 1107], the IC50 came out at 3220 ± 500 nM. In turn, `CC(C)n1cnc(S(=O)(=O)N2CCC(C(=O)Nc3ccccc3)CC2)c1` [Compound 507] had an IC50 of 2770 ± 690 nM. In turn, `CC(C)n1cnc(S(=O)(=O)N2CCC(C(=O)Nc3ccc(F)c(Cl)c3)CC2)c1` [Compound 527] gave an IC50 of 3130 ± 790 nM. With `CCn1cnc(S(=O)(=O)N2CCC(C(=O)Nc3cccc(-c4ccno4)c3)CC2)c1` [Compound 553], the IC50 came out at 2680 ± 990 nM. The molecule `COc1ccc(NC(=O)C2CCN(S(=O)(=O)c3cn(C(C)C)cn3)CC2)cc1OC` [Compound 528] showed an IC50 of 1830 ± 140 nM. `CC(C)n1cnc(S(=O)(=O)N2CCC(C(=O)NCc3ccc(Br)cc3)CC2)c1` [Compound 555] gave an IC50 of 3200 ± 1050 nM. Same read-out and setting: with `CC(C)n1cnc(S(=O)(=O)N2CCC(C(=O)Nc3ccc(Cl)cc3)CC2)c1` [Compound 522] the figure was 2940 ± 720 nM. The same measure, in the same setting: with `CCOc1ccc2nc(NC(=O)C3CCN(S(=O)(=O)c4cn(C(C)C)cn4)CC3)sc2c1` [Compound 550] the figure was 2130 ± 240 nM; with `Cc1ccc(NC(=O)C2CCN(S(=O)(=O)c3cn(C(C)C)cn3)CC2)cc1Cl` [Compound 533], 2640 ± 190 nM. `CC(C)n1cnc(S(=O)(=O)N2CCC(C(=O)NCCCc3ccccc3)CC2)c1` [Compound 547] returned an IC50 of 2670 ± 600 nM. In the case of `COCCN(C(=O)c1cccs1)c1nc2c(s1)CCc1c-2cnn1C` [Compound 1101], the IC50 came to 1620 ± 240 nM. `Cc1ccc2nc(NC(=O)C3CCN(S(=O)(=O)c4cn(C(C)C)cn4)CC3)sc2c1` [Compound 542] registered an IC50 of 5060 ± 1090 nM. As to `COc1cccc(NC(=O)C2CCN(S(=O)(=O)c3cn(C(C)C)cn3)CC2)c1` [Compound 516], the IC50 was determined as 2460 ± 760 nM. With `COc1ccc(CCNC(=O)C2CCN(S(=O)(=O)c3cn(C(C)C)cn3)CC2)cc1OC` [Compound 564], the IC50 was 2220 ± 520 nM. In turn, `CCOc1ccc2cc(CNc3ccc(O)cc3)c(O)nc2c1` [Compound 802] had an IC50 of 3340 ± 260 nM. On the same count and under the same terms, with `CCn1cnc(S(=O)(=O)N2CCC(C(=O)Nc3nc4ccc(OC)cc4s3)CC2)c1` [Compound 563] the figure was 3020 ± 870 nM; with `COc1ccc(NC(=O)C2CCN(S(=O)(=O)c3cn(C(C)C)cn3)CC2)c(OC)c1` [Compound 537], 3400 ± 1600 nM. `CCOc1ccccc1CNC(=O)C1CCN(S(=O)(=O)c2cn(C(C)C)cn2)CC1` [Compound 554] returned an IC50 of 3420 ± 880 nM. Molecule `Cc1ccc(NC(=O)C2CCN(S(=O)(=O)c3cn(C(C)C)cn3)CC2)cc1N(C)C` [Compound 526] yielded a concentration for half-maximal inhibition (IC50) of 2790 ± 720 nM.

For the molecule `Cc1ccc(NC(=O)C2CCN(S(=O)(=O)c3cn(C(C)C)cn3)CC2)cc1C` [Compound 510], the IC50 worked out at 2450 ± 210 nM. Same read-out and setting: with `Cc1cc(NC(=O)C2CCN(S(=O)(=O)c3cn(C(C)C)cn3)CC2)ccc1Br` [Compound 531] the figure was 4110 ± 1590 nM. Regarding `CCc1cccc(NC(=O)C2CCN(S(=O)(=O)c3cn(C(C)C)cn3)CC2)c1` [Compound 511], half-maximal inhibition (IC50) required 2550 ± 790 nM.

`COc1ccc(NC(=O)CN(C)S(=O)(=O)c2cc(Br)cnc2N)cc1OC` [Compound 502]: the IC50 was found to be 840 ± 130 nM. The same measure, in the same setting: with `COc1ccc2cc(CNc3ccc(O)cc3)c(O)nc2c1` [Compound 801] the figure was 2250 ± 160 nM; with `Oc1ccc(NCc2cc3ccccc3nc2O)cc1` [Compound 803], 1620 ± 180 nM; with `CCOc1ccc2nc(NC(=O)C3CCN(S(=O)(=O)c4cn(CC)cn4)CC3)sc2c1` [Compound 562], 3500 ± 470 nM. Same read-out and setting: the same measure for `CC(C)n1cnc(S(=O)(=O)N2CCC(C(=O)NC3CC3)CC2)c1` [Compound 559]: 2990 ± 1390 nM; for `CC(C)n1cnc(S(=O)(=O)N2CCC(C(=O)Nc3cccc(-c4ccno4)c3)CC2)c1` [Compound 535]: 2120 ± 210 nM; for `CC(C)n1cnc(S(=O)(=O)N2CCC(C(=O)Nc3cccc(F)c3)CC2)c1` [Compound 517]: 3610 ± 980 nM. Regarding `Cc1ccc(C)c(NC(=O)C2CCN(S(=O)(=O)c3cn(C(C)C)cn3)CC2)c1` [Compound 529], inhibition was half-maximal at 3920 ± 2470 nM (IC50).

In the case of `CC(C)n1cnc(S(=O)(=O)N2CCC(C(=O)Nc3ccccc3F)CC2)c1` [Compound 524], 2670 ± 650 nM corresponded to half-maximal inhibition (IC50). As to `CCc1ccc2nc(O)c(CNc3ccc(N(C)C)cc3)cc2c1` [Compound 806], the IC50 was 4730 ± 910 nM. Still for that read-out and setting: with `COc1ccc2nc(NC(=O)C3CCN(S(=O)(=O)c4cn(C(C)C)cn4)CC3)sc2c1` [Compound 551] the figure was 2280 ± 110 nM; with `CCn1cnc(S(=O)(=O)N2CCC(C(=O)Nc3ccc(C)c(Cl)c3)CC2)c1` [Compound 544], 4550 ± 1270 nM; with `CC(C)n1cnc(S(=O)(=O)N2CCC(C(=O)NCc3ccc(Cl)cc3)CC2)c1` [Compound 556], 3750 ± 1010 nM.

Molecule `Cc1ccc(CNC(=O)CN(C)S(=O)(=O)c2cc(Br)cnc2N)cc1` [Compound 506] had a 50% inhibitory concentration (IC50) of 3310 ± 490 nM.

`CN(C(=O)Cc1cccs1)c1nc2c(s1)CCc1c-2cnn1C` [Compound 1103]: it took 2890 ± 460 nM to reach half-maximal inhibition (IC50).

What is called IC50 is the concentration that inhibits the measured activity by half. Higher therefore signals lower potency.
